{"source": "patent US12285407B2", "about": "“Bis-indolylmethane derivatives and uses thereof” (The University of The West Indies, priority 2018, dated 2025)", "key": {"Streptococcus pneumoniae": {"test_system": "Streptococcus pneumoniae", "assay": "Adjuvant broth microdilution (antibiotic MIC with SP-BIM at 50 μg/mL)", "format": "cell-based", "details": "Streptococcus pneumoniae; Streptococcus pneumonia; antibiotic alone; Table 5; read-out: MIC of antibiotic, No compound"}, "[1]": {"test_system": "clinical antibiotic resistant isolates of MRSA", "assay": "Checkerboard resistance breaking by SP-BIM 13", "format": "cell-based, Staphylococcus aureus", "details": "for FIC compound / Rescue concentration of SP-BIM 13: SP-BIM 13 with the labelled antibiotic; for Interpretation / Σ FIC: antibiotic + SP-BIM 13; for MIC of antibiotic only: antibiotic alone; for FIC antibiotic: combination with SP-BIM 13; for MIC of antibiotic in combination: with SP-BIM 13 at rescue concentration"}, "Pseudomonas aeruginosa": {"test_system": "Pseudomonas aeruginosa", "assay": "Adjuvant broth microdilution (antibiotic MIC with SP-BIM at 50 μg/mL)", "format": "cell-based", "details": "antibiotic alone"}, "Enterobacter cloacae": {"test_system": "Enterobacter cloacae", "assay": "Adjuvant broth microdilution (antibiotic MIC with SP-BIM at 50 μg/mL)", "format": "cell-based", "details": "antibiotic alone"}, "MRSA": {"test_system": "MRSA", "assay": "Adjuvant broth microdilution (antibiotic MIC with SP-BIM at 50 μg/mL)", "format": "cell-based, Staphylococcus aureus", "details": "antibiotic alone"}, "clinical strains of MRSA": {"test_system": "clinical strains of MRSA", "assay": "Kirby Bauer disc diffusion susceptibility profile", "format": "cell-based, Staphylococcus aureus", "details": "for Zone of clearance: 35° C., 24 hours, average n=3; for Interpretive standard (resistant/susceptible): zones vs EUCAST breakpoints (Table 30)"}, "Enterococcus faecalis": {"test_system": "Enterococcus faecalis", "assay": "Adjuvant broth microdilution (antibiotic MIC with SP-BIM at 50 μg/mL)", "format": "cell-based", "details": "antibiotic alone"}, "Staphylococcus aureus": {"test_system": "Staphylococcus aureus", "assay": "Checkerboard synergy (FICI) of antibiotics with SP-BIM", "format": "cell-based", "details": "Staphylococcus aureus, Staphylococcus aureus; for MIC: 24 h, antibiotic alone, read-out: MIC antibiotic only"}}, "note": "Like-named read-outs stand apart in the source and are kept apart here.", "data": [{"smiles": "C[C@H]1c2cccc(O)c2C(=O)C2=C(O)[C@]3(O)C(=O)C(C(N)=O)=C(O)[C@@H](N(C)C)[C@@H]3[C@@H](O)[C@@H]21", "note": "[Doxycycline, doxycycline]", "values": [{"measurement": "MIC", "setting": "Streptococcus pneumoniae", "value": 63, "unit": "µg/mL"}, {"measurement": "FIC compound", "setting": "[1]; MRSA strain 1594", "value": 0.3}, {"measurement": "Rescue concentration of SP-BIM 13", "setting": "[1]; MRSA strain 1594", "value": 63, "unit": "µg/mL"}, {"measurement": "Interpretation", "setting": "[1]; MRSA strain 1594", "value": "Synergy (Synergy: FICI≤0.5)"}, {"measurement": "Σ FIC", "setting": "[1]; MRSA strain 1594", "value": "<0.43"}, {"measurement": "MIC of antibiotic only", "setting": "[1]; MRSA strain 1594", "value": 8, "unit": "µg/mL"}, {"measurement": "FIC antibiotic", "setting": "[1]; MRSA strain 1594", "value": 0.125}, {"measurement": "MIC of antibiotic in combination", "setting": "[1]; MRSA strain 1594", "value": 1, "unit": "µg/mL"}, {"measurement": "FIC compound", "setting": "[1]; MRSA strain 5872", "value": 0.064}, {"measurement": "Rescue concentration of SP-BIM 13", "setting": "[1]; MRSA strain 5872", "value": 16, "unit": "µg/mL"}, {"measurement": "Interpretation", "setting": "[1]; MRSA strain 5872", "value": "Synergy (Synergy: FICI≤0.5)"}, {"measurement": "Σ FIC", "setting": "[1]; MRSA strain 5872", "value": "<0.19"}, {"measurement": "MIC of antibiotic only", "setting": "[1]; MRSA strain 5872", "value": 32, "unit": "µg/mL"}, {"measurement": "FIC antibiotic", "setting": "[1]; MRSA strain 5872", "value": 0.125}, {"measurement": "MIC of antibiotic in combination", "setting": "[1]; MRSA strain 5872", "value": 4, "unit": "µg/mL"}, {"measurement": "FIC compound", "setting": "[1]; MRSA strain 7153", "value": 0.128}, {"measurement": "Rescue concentration of SP-BIM 13", "setting": "[1]; MRSA strain 7153", "value": 32, "unit": "µg/mL"}, {"measurement": "Interpretation", "setting": "[1]; MRSA strain 7153", "value": "Synergy (Synergy: FICI≤0.5)"}, {"measurement": "Σ FIC", "setting": "[1]; MRSA strain 7153", "value": "<0.25"}, {"measurement": "MIC of antibiotic only", "setting": "[1]; MRSA strain 7153", "value": 8, "unit": "µg/mL"}, {"measurement": "FIC antibiotic", "setting": "[1]; MRSA strain 7153", "value": 0.125}, {"measurement": "MIC of antibiotic in combination", "setting": "[1]; MRSA strain 7153", "value": 1, "unit": "µg/mL"}, {"measurement": "FIC compound", "setting": "[1]; MRSA strain 7172", "value": 0.128}, {"measurement": "Rescue concentration of SP-BIM 13", "setting": "[1]; MRSA strain 7172", "value": 32, "unit": "µg/mL"}, {"measurement": "Interpretation", "setting": "[1]; MRSA strain 7172", "value": "Synergy (Synergy: FICI≤0.5)"}, {"measurement": "Σ FIC", "setting": "[1]; MRSA strain 7172", "value": "<0.38"}, {"measurement": "MIC of antibiotic only", "setting": "[1]; MRSA strain 7172", "value": 8, "unit": "µg/mL"}, {"measurement": "FIC antibiotic", "setting": "[1]; MRSA strain 7172", "value": 0.250}, {"measurement": "MIC of antibiotic in combination", "setting": "[1]; MRSA strain 7172", "value": 2, "unit": "µg/mL"}, {"measurement": "FIC compound", "setting": "[1]; MRSA strain 7698", "value": 0.128}, {"measurement": "Rescue concentration of SP-BIM 13", "setting": "[1]; MRSA strain 7698", "value": 32, "unit": "µg/mL"}, {"measurement": "Interpretation", "setting": "[1]; MRSA strain 7698", "value": "Synergy (Synergy: FICI≤0.5)"}, {"measurement": "Σ FIC", "setting": "[1]; MRSA strain 7698", "value": "<0.19"}, {"measurement": "MIC of antibiotic only", "setting": "[1]; MRSA strain 7698", "value": 16, "unit": "µg/mL"}, {"measurement": "FIC antibiotic", "setting": "[1]; MRSA strain 7698", "value": 0.063}, {"measurement": "MIC of antibiotic in combination", "setting": "[1]; MRSA strain 7698", "value": 1, "unit": "µg/mL"}, {"measurement": "FIC compound", "setting": "[1]; MRSA strain 10132", "value": 0.032}, {"measurement": "Rescue concentration of SP-BIM 13", "setting": "[1]; MRSA strain 10132", "value": 8, "unit": "µg/mL"}, {"measurement": "Interpretation", "setting": "[1]; MRSA strain 10132", "value": "Synergy (Synergy: FICI≤0.5)"}, {"measurement": "Σ FIC", "setting": "[1]; MRSA strain 10132", "value": "<0.09"}, {"measurement": "MIC of antibiotic only", "setting": "[1]; MRSA strain 10132", "value": 8, "unit": "µg/mL"}, {"measurement": "FIC antibiotic", "setting": "[1]; MRSA strain 10132", "value": 0.063}, {"measurement": "MIC of antibiotic in combination", "setting": "[1]; MRSA strain 10132", "value": 0.5, "unit": "µg/mL"}, {"measurement": "MIC of antibiotic, No Compound", "setting": "Pseudomonas aeruginosa", "value": 32, "unit": "µg/mL"}, {"measurement": "MIC of antibiotic, No Compound", "setting": "Enterobacter cloacae", "value": 4, "unit": "µg/mL"}, {"measurement": "MIC", "setting": "MRSA; Staphylococcus aureus, Table 4, read-out: MIC of antibiotic, No compound", "value": 8, "unit": "µg/mL"}, {"measurement": "MIC of antibiotic, No Compound", "setting": "MRSA; Table 8 (series SP-BIMs 21-29)", "value": "<0.5", "unit": "µg/mL"}, {"measurement": "Zone of clearance", "setting": "clinical strains of MRSA; MRSA strain 1594", "value": 12.5, "unit": "mm"}, {"measurement": "Interpretive standard (resistant/susceptible)", "setting": "clinical strains of MRSA; MRSA strain 1594", "value": "R"}, {"measurement": "Zone of clearance", "setting": "clinical strains of MRSA; MRSA strain 1621", "value": 21.0, "unit": "mm"}, {"measurement": "Interpretive standard (resistant/susceptible)", "setting": "clinical strains of MRSA; MRSA strain 1621", "value": "S"}, {"measurement": "Zone of clearance", "setting": "clinical strains of MRSA; MRSA strain 5455", "value": 22.5, "unit": "mm"}, {"measurement": "Interpretive standard (resistant/susceptible)", "setting": "clinical strains of MRSA; MRSA strain 5455", "value": "S"}, {"measurement": "Zone of clearance", "setting": "clinical strains of MRSA; MRSA strain 5872", "value": 15.0, "unit": "mm"}, {"measurement": "Interpretive standard (resistant/susceptible)", "setting": "clinical strains of MRSA; MRSA strain 5872", "value": "R"}, {"measurement": "Zone of clearance", "setting": "clinical strains of MRSA; MRSA strain 7153", "value": 18.0, "unit": "mm"}, {"measurement": "Interpretive standard (resistant/susceptible)", "setting": "clinical strains of MRSA; MRSA strain 7153", "value": "R"}, {"measurement": "Zone of clearance", "setting": "clinical strains of MRSA; MRSA strain 7172", "value": 19.0, "unit": "mm"}, {"measurement": "Interpretive standard (resistant/susceptible)", "setting": "clinical strains of MRSA; MRSA strain 7172", "value": "R"}, {"measurement": "Zone of clearance", "setting": "clinical strains of MRSA; MRSA strain 7698", "value": 10.5, "unit": "mm"}, {"measurement": "Interpretive standard (resistant/susceptible)", "setting": "clinical strains of MRSA; MRSA strain 7698", "value": "R"}, {"measurement": "Zone of clearance", "setting": "clinical strains of MRSA; MRSA strain 10132", "value": 12.0, "unit": "mm"}, {"measurement": "Interpretive standard (resistant/susceptible)", "setting": "clinical strains of MRSA; MRSA strain 10132", "value": "R"}, {"measurement": "MIC of antibiotic, No Compound", "setting": "Enterococcus faecalis", "value": 0.5, "unit": "µg/mL"}, {"measurement": "MIC", "setting": "Staphylococcus aureus; SP-BIM 9 checkerboard", "value": 8, "unit": "µg/mL"}, {"measurement": "MIC", "setting": "Staphylococcus aureus; SP-BIM 13 checkerboard", "value": 8, "unit": "µg/mL"}, {"measurement": "FIC of SP-BIM 9", "setting": "Staphylococcus aureus; SP-BIM 9 in combination with the labelled antibiotic", "value": 0.13}, {"measurement": "FIC of SP-BIM 13", "setting": "Staphylococcus aureus; SP-BIM 13 in combination with the labelled antibiotic", "value": 0.3}, {"measurement": "Interpretation", "setting": "Staphylococcus aureus; antibiotic + SP-BIM 9", "value": "Synergy (Synergy: FICI≤0.5)"}]}]}
